Test results reported in patent US20260001928A1 (CORTERIA PHARMACEUTICALS, priority 2022, published 2026).
*1 amine or outer side, *2 acyl side, *3 side chain or, on linkers, in order; H or OH if unused. Where a SMILES comes first, the peptide text is derived from it. Side-chain parts run from the residue outwards. [ ]: non-standard residue; d: D form. The star is where a group is joined. C20 diacid = O=C(O)CCCCCCCCCCCCCCCCCCC(=O)*; C16 diacid = O=C(O)CCCCCCCCCCCCCCC(=O)*; γGlu = O=C(O)[C@H](CCC(=O)[*:2])N[*:1]; Hexanoyl = CCCCCC(=O)*; Pentanoyl = CCCCC(=O)*; AEEA = NCCOCCOCC(=O)O; Aib = CC(C)(N)C(=O)O

Experiments:
CFR1R receptor = target: T1, CFR1R receptor (Homo sapiens, UniProt P34998); assay: Activity at anti-target CFR1R receptor, cAMP assay in CRF1R-overexpression CHO-K1 cells; format: cell-based; settings: 100% = Sauvagine at 100 nM; for EC50: cAMP
T1 construct: host or cells: CHO-K1 (clone 2)
T1 sequence (P34998 24-415): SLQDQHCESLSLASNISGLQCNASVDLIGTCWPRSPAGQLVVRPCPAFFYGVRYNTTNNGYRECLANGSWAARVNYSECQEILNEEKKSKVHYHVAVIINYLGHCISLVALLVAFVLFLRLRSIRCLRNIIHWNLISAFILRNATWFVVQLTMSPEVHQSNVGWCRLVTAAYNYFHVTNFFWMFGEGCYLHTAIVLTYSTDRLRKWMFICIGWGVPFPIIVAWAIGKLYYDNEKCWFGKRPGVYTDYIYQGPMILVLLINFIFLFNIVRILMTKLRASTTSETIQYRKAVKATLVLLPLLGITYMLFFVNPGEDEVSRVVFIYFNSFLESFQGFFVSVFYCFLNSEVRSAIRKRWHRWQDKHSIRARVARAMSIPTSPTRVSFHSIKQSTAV
Outline: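 Clone 2; cryopreserved stocks (10% DMSO); 4000 cells/well final; 100% activation = Sauvagine 100 nM; otherwise as TeloHAEC protocol.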

human CRF2a receptor = target: T2, human CRF2a receptor (Homo sapiens, UniProt Q13324); assay: Activity at human CRF2a receptor, cAMP functional assay in TeloHEAC cells; format: cell-based; settings: TeloHEAC cells stably expressing human CRF2a receptor, relative to urocortin 2 (100 nM = 100%)
T2 construct: expressed in transfected cells; host or cells: TeloHEAC cells
T2 sequence (Q13324 1-411): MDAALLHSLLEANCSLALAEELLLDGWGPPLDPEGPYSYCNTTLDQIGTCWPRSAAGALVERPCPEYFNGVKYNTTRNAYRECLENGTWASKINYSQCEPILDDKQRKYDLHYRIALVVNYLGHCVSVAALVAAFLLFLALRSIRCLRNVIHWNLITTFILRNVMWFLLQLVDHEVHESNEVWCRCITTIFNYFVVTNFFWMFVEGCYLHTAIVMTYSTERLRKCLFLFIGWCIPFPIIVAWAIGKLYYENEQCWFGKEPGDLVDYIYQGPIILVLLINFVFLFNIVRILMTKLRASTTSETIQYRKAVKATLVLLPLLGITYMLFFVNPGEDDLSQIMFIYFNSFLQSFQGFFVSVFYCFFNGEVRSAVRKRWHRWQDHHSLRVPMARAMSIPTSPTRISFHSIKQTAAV
Outline: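 TeloHEAC cells stably expressing human CRF2a (10000 cells/well, suspended in HBSS/20 mM HEPES with 2 mM IBMX) were exposed to compounds for 30 min at 37 °C. cAMP was read as the 665/620 nm fluorescence ratio after 1 h at room temperature. EC50 was derived relative to 100 nM urocortin 2, set as 100%.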

Row | Compound | Emax (% I) (CFR1R receptor) | EC50 (human CRF2a receptor) [nM] | EC50 (CFR1R receptor) [nM]
1 | CCCCC(=O)N[C@H](C(=O)N[C@@H](CC(C)C)C(=O)N[C@@H](CO)C(=O)N[C@@H](CC(C)C)C(=O)N[C@@H](CC(=O)O)C(=O)N[C@@H](C(=O)N1CCC[C@H]1C(=O)N[C@H](C(=O)NCC(=O)N[C@@H](CC(C)C)C(=O)N[C@@H](CCCCNC(=O)CC[C@H](NC(=O)CCCCCCCCCCCCCCCCCCC(=O)O)C(=O)O)C(=O)N[C@@H](CCCCN)C(=O)N[C@H](C(=O)N[C@@H](CC(C)C)C(=O)N[C@@H](CC(C)C)C(=O)N[C@@H](CCC(=O)O)C(=O)N[C@@H](CCC(N)=O)C(=O)N[C@@H](CCC(=O)O)C(=O)N[C@@H](CCCCN)C(=O)N[C@@H](CCC(N)=O)C(=O)N[C@@H](CCCCN)C(=O)N[C@@H](CCCCN)C(=O)N[C@@H](CCC(N)=O)C(=O)N[C@@H](CCCNC(=N)N)C(=O)N[C@@H](CCC(=O)O)C(=O)N[C@@H](CCC(N)=O)C(=O)N[C@@H](C)C(=O)N[C@@H](CCC(=O)O)C(=O)N[C@H](C(=O)N[C@@H](CC(N)=O)C(=O)NC(C)(C)C(=O)N[C@@H](CCC(N)=O)C(=O)N[C@H](C(=O)N[C@@H](CC(C)C)C(=O)N[C@@H](C)C(=O)N[C@@H](CCC(N)=O)C(=O)N[C@H](C(N)=O)C(C)C)[C@@H](C)CC)[C@@H](C)O)[C@@H](C)CC)[C@@H](C)CC)C(C)C)C(C)C [compound 228] (Pentanoyl-VLSLD[dV]PIGLK([γGlu-C20 diacid])KILLEQEKQKKQREQAETN[Aib]QILAQV-NH2) | 62 | 0.19 | –
2 | CCCCC(=O)N[C@H](C(=O)N[C@@H](CC(C)C)C(=O)N[C@@H](CO)C(=O)N[C@@H](CC(C)C)C(=O)N[C@@H](CC(=O)O)C(=O)N[C@@H](C(=O)N1CCC[C@H]1C(=O)N[C@H](C(=O)N[C@@H](CCCCN)C(=O)N[C@@H](CC(C)C)C(=O)N[C@@H](CCCCNC(=O)CC[C@H](NC(=O)CCCCCCCCCCCCCCC(=O)O)C(=O)O)C(=O)N[C@@H](CCC(N)=O)C(=O)NC(C)(C)C(=O)N[C@@H](CC(C)C)C(=O)N[C@@H](CC(C)C)C(=O)N[C@@H](CCCCN)C(=O)N[C@@H](CCC(N)=O)C(=O)N[C@@H](CCC(=O)O)C(=O)N[C@@H](CCCNC(=N)N)C(=O)N[C@@H](CCC(N)=O)C(=O)N[C@@H](CCCCN)C(=O)N[C@@H](CCCCN)C(=O)N[C@@H](CCC(N)=O)C(=O)N[C@@H](CCCNC(=N)N)C(=O)N[C@@H](CCC(=O)O)C(=O)N[C@@H](CCC(N)=O)C(=O)N[C@@H](C)C(=O)N[C@@H](CCC(=O)O)C(=O)N[C@@H](CCCCN)C(=O)N[C@@H](CC(N)=O)C(=O)N[C@H](C(=O)N[C@@H](CCC(N)=O)C(=O)N[C@H](C(=O)N[C@@H](CC(C)C)C(=O)N[C@@H](CCC(=O)O)C(=O)N[C@@H](CCC(N)=O)C(=O)N[C@H](C(N)=O)C(C)C)[C@@H](C)CC)C(C)C)[C@@H](C)CC)C(C)C)C(C)C [compound 22] (Pentanoyl-VLSLD[dV]PIKLK([γGlu-C16 diacid])Q[Aib]LLKQERQKKQREQAEKNVQILEQV-NH2) | 3 | 4.44 | > 250
3 | CCCCCC(=O)N[C@H](C(=O)N[C@@H](CC(C)C)C(=O)N[C@@H](CO)C(=O)N[C@@H](CC(C)C)C(=O)N[C@@H](CC(=O)O)C(=O)N[C@@H](C(=O)N1CCC[C@H]1C(=O)N[C@H](C(=O)N[C@@H](CCCCN)C(=O)N[C@@H](CC(C)C)C(=O)N[C@@H](CCCCNC(=O)CC[C@H](NC(=O)CCCCCCCCCCCCCCC(=O)O)C(=O)O)C(=O)N[C@@H](CCCCN)C(=O)N[C@H](C(=O)N[C@@H](CC(C)C)C(=O)N[C@@H](CC(C)C)C(=O)N[C@@H](CCC(=O)O)C(=O)N[C@@H](CCC(N)=O)C(=O)N[C@@H](CCC(=O)O)C(=O)N[C@@H](CCCCN)C(=O)N[C@@H](CCC(N)=O)C(=O)N[C@@H](CCCCN)C(=O)N[C@@H](CCCCN)C(=O)N[C@@H](CCC(N)=O)C(=O)N[C@@H](CCCNC(=N)N)C(=O)N[C@@H](CCC(=O)O)C(=O)N[C@@H](CCC(N)=O)C(=O)N[C@@H](C)C(=O)N[C@@H](CCC(=O)O)C(=O)N[C@H](C(=O)N[C@@H](CC(N)=O)C(=O)NC(C)(C)C(=O)N[C@@H](CCC(N)=O)C(=O)N[C@H](C(=O)N[C@@H](CC(C)C)C(=O)N[C@@H](C)C(=O)N[C@@H](CCC(N)=O)C(=O)N[C@H](C(N)=O)C(C)C)[C@@H](C)CC)[C@@H](C)O)[C@@H](C)CC)[C@@H](C)CC)C(C)C)C(C)C [compound 156] (Hexanoyl-VLSLD[dV]PIKLK([γGlu-C16 diacid])KILLEQEKQKKQREQAETN[Aib]QILAQV-NH2) | 8 | 0.29 | > 250
4 | CC[C@H](C)[C@H](NC(C)=O)C(=O)N[C@H](C(=O)N[C@@H](CC(C)C)C(=O)N[C@@H](CO)C(=O)N[C@@H](CC(C)C)C(=O)N[C@@H](CC(=O)O)C(=O)N[C@@H](C(=O)N1CCC[C@H]1C(=O)N[C@H](C(=O)N[C@@H](CCCCN)C(=O)N[C@@H](CC(C)C)C(=O)N[C@@H](CCCCNC(=O)CC[C@H](NC(=O)CCCCCCCCCCCCCCC(=O)O)C(=O)O)C(=O)N[C@@H](CCCCN)C(=O)N[C@H](C(=O)N[C@@H](CC(C)C)C(=O)N[C@@H](CC(C)C)C(=O)N[C@@H](CCC(=O)O)C(=O)N[C@@H](CCC(N)=O)C(=O)N[C@@H](CCC(=O)O)C(=O)N[C@@H](CCCCN)C(=O)N[C@@H](CCC(N)=O)C(=O)N[C@@H](C)C(=O)N[C@@H](CCCCN)C(=O)N[C@@H](CCC(N)=O)C(=O)N[C@@H](CCCNC(=N)N)C(=O)N[C@@H](CCC(=O)O)C(=O)N[C@@H](CCC(N)=O)C(=O)N[C@@H](C)C(=O)N[C@@H](CCC(=O)O)C(=O)N[C@H](C(=O)N[C@@H](CC(N)=O)C(=O)NC(C)(C)C(=O)N[C@@H](CCC(N)=O)C(=O)N[C@H](C(=O)N[C@@H](CC(C)C)C(=O)N[C@@H](C)C(=O)N[C@@H](CCC(N)=O)C(=O)N[C@H](C(N)=O)C(C)C)[C@@H](C)CC)[C@@H](C)O)[C@@H](C)CC)[C@@H](C)CC)C(C)C)C(C)C [compound 166] (Ac-IVLSLD[dV]PIKLK([γGlu-C16 diacid])KILLEQEKQAKQREQAETN[Aib]QILAQV-NH2) | 5 | 0.77 | > 250
5 | CC[C@H](C)[C@H](NC(C)=O)C(=O)N[C@H](C(=O)N[C@@H](CC(C)C)C(=O)N[C@@H](CO)C(=O)N[C@@H](CC(C)C)C(=O)N[C@@H](CC(=O)O)C(=O)N[C@@H](C(=O)N1CCC[C@H]1C(=O)N[C@H](C(=O)N[C@@H](CCCCN)C(=O)N[C@@H](CC(C)C)C(=O)N[C@@H](CCCCNC(=O)COCCOCCNC(=O)COCCOCCNC(=O)CC[C@H](NC(=O)CCCCCCCCCCCCCCC(=O)O)C(=O)O)C(=O)N[C@@H](CCCCN)C(=O)N[C@H](C(=O)N[C@@H](CC(C)C)C(=O)N[C@@H](CC(C)C)C(=O)N[C@@H](CCC(=O)O)C(=O)N[C@@H](CCC(N)=O)C(=O)N[C@@H](CCC(=O)O)C(=O)N[C@@H](CCCCN)C(=O)N[C@@H](CCC(N)=O)C(=O)N[C@@H](CCCCN)C(=O)N[C@@H](CCCCN)C(=O)N[C@@H](CCC(N)=O)C(=O)N[C@@H](CCCNC(=N)N)C(=O)N[C@@H](CCC(=O)O)C(=O)N[C@@H](CCC(N)=O)C(=O)N[C@@H](C)C(=O)N[C@@H](CCC(=O)O)C(=O)N[C@H](C(=O)N[C@@H](CC(N)=O)C(=O)NC(C)(C)C(=O)N[C@@H](CCC(N)=O)C(=O)N[C@H](C(=O)N[C@@H](CC(C)C)C(=O)N[C@@H](C)C(=O)N[C@@H](CCC(N)=O)C(=O)N[C@H](C(N)=O)C(C)C)[C@@H](C)CC)[C@@H](C)O)[C@@H](C)CC)[C@@H](C)CC)C(C)C)C(C)C [compound 42] (Ac-IVLSLD[dV]PIKLK([AEEA-AEEA-γGlu-C16 diacid])KILLEQEKQKKQREQAETN[Aib]QILAQV-NH2) | 1 | 3.08 | > 250
